Results published in the supplement of paper PMC10307832.

Columns and labels:
Assay in all cases: relative viability (nuclei count vs DMSO), 5 days (fraction); higher = more cells survive
NCI-H647 = test system: NCI-H647
In short: (§1)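 For relative viability, nuclei counts in treated wells were divided by those in vehicle wells. Lung cancer cell lines had been pin-tool dosed in 1536-well plates the day after seeding and cultured for 5 days, then fixed and stained in one step (final 0.05% Triton X-100, 1% formaldehyde, 1 ug/ml Hoechst) and imaged at 4×. Doses were one drug alone or a fixed anchor-drug dose plus five library-drug doses (not always all listed) in √10 steps, and values are duplicate-plate medians.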

NCI-H460 = test system: NCI-H460
In short: as §1

HCC-78 = test system: HCC-78
In short: as §1

A-427 = test system: A-427
In short: as §1

NCI-H661 = test system: NCI-H661
In short: as §1

HCC-15 = test system: HCC-15
In short: as §1

HOP-62 = test system: HOP-62
In short: as §1

PC-14 = test system: PC-14
In short: as §1

EMC-BAC-2 = test system: EMC-BAC-2
In short: as §1

NCI-H2405 = test system: NCI-H2405
In short: as §1

COR-L23 = test system: COR-L23
In short: as §1

NCI-H522 = test system: NCI-H522
In short: as §1

EKVX = test system: EKVX
In short: as §1

201T = test system: 201T
In short: as §1

SK-MES-1 = test system: SK-MES-1
In short: as §1

NCI-H1915 = test system: NCI-H1915
In short: as §1

LK-2 = test system: LK-2
In short: as §1

BEN = test system: BEN
In short: as §1

NCI-H1993 = test system: NCI-H1993
In short: as §1

HCC-366 = test system: HCC-366
In short: as §1

COR-L 105 = test system: COR-L 105
In short: as §1

NCI-H1734 = test system: NCI-H1734
In short: as §1

## Cc1csc(=NC2CCCCC2)n1/N=C/c1ccc(O)c(O)c1O [MIM1] + CC(=O)Nc1cccc(-n2c(=O)n(C3CC3)c(=O)c3c(Nc4ccc(I)cc4F)n(C)c(=O)c(C)c32)c1 [Trametinib] (partner 0.02 µM)
NCI-H647; first compound 0.2 µM
  relative viability: 0.435
NCI-H647; first compound 0.6325 µM
  relative viability: 0.567
NCI-H647; first compound 2 µM
  relative viability: 0.415
NCI-H647; first compound 6.325 µM
  relative viability: 0.413
NCI-H647; first compound 20 µM
  relative viability: 0.18
NCI-H460; first compound 0.2 µM
  relative viability: 0.103
NCI-H460; first compound 0.6325 µM
  relative viability: 0.136
NCI-H460; first compound 2 µM
  relative viability: 0.118
NCI-H460; first compound 6.325 µM
  relative viability: 0.0462
NCI-H460; first compound 20 µM
  relative viability: 0.0293
HCC-78; first compound 0.2 µM
  relative viability: 0.75
HCC-78; first compound 2 µM
  relative viability: 0.778
HCC-78; first compound 6.325 µM
  relative viability: 0.556
HCC-78; first compound 20 µM
  relative viability: 1.15
A-427; first compound 0.2 µM
  relative viability: 0.758
A-427; first compound 0.6325 µM
  relative viability: 0.737
A-427; first compound 2 µM
  relative viability: 0.77
A-427; first compound 6.325 µM
  relative viability: 0.672
A-427; first compound 20 µM
  relative viability: 0.37
NCI-H661; first compound 0.2 µM
  relative viability: 0.607
NCI-H661; first compound 0.6325 µM
  relative viability: 0.587
NCI-H661; first compound 2 µM
  relative viability: 0.554
NCI-H661; first compound 6.325 µM
  relative viability: 0.406
NCI-H661; first compound 20 µM
  relative viability: 0.348
HCC-15; first compound 0.2 µM
  relative viability: 0.363
HCC-15; first compound 2 µM
  relative viability: 0.372
HCC-15; first compound 6.325 µM
  relative viability: 0.377
HCC-15; first compound 20 µM
  relative viability: 0.133
HOP-62; first compound 0.2 µM
  relative viability: 0.386
HOP-62; first compound 0.6325 µM
  relative viability: 0.417
HOP-62; first compound 2 µM
  relative viability: 0.379
HOP-62; first compound 6.325 µM
  relative viability: 0.344
HOP-62; first compound 20 µM
  relative viability: 0.266
PC-14; first compound 0.2 µM
  relative viability: 0.663
PC-14; first compound 0.6325 µM
  relative viability: 0.882
PC-14; first compound 2 µM
  relative viability: 0.479
PC-14; first compound 6.325 µM
  relative viability: 0.621
PC-14; first compound 20 µM
  relative viability: 0.17
EMC-BAC-2; first compound 0.2 µM
  relative viability: 0.889
EMC-BAC-2; first compound 0.6325 µM
  relative viability: 0.799
EMC-BAC-2; first compound 2 µM
  relative viability: 0.702
EMC-BAC-2; first compound 6.325 µM
  relative viability: 0.73
EMC-BAC-2; first compound 20 µM
  relative viability: 0.355
NCI-H2405; first compound 0.2 µM
  relative viability: 0.586
NCI-H2405; first compound 0.6325 µM
  relative viability: 0.75
NCI-H2405; first compound 2 µM
  relative viability: 0.656
NCI-H2405; first compound 6.325 µM
  relative viability: 0.603
NCI-H2405; first compound 20 µM
  relative viability: 0.685
COR-L23; first compound 0.2 µM
  relative viability: 0.509
COR-L23; first compound 0.6325 µM
  relative viability: 0.619
COR-L23; first compound 2 µM
  relative viability: 0.571
COR-L23; first compound 6.325 µM
  relative viability: 0.388
COR-L23; first compound 20 µM
  relative viability: 0.306
NCI-H522; first compound 0.2 µM
  relative viability: 0.727
NCI-H522; first compound 0.6325 µM
  relative viability: 0.654
NCI-H522; first compound 2 µM
  relative viability: 0.834
NCI-H522; first compound 6.325 µM
  relative viability: 0.897
NCI-H522; first compound 20 µM
  relative viability: 0.675
EKVX; first compound 0.2 µM
  relative viability: 0.304
EKVX; first compound 0.6325 µM
  relative viability: 0.287
EKVX; first compound 2 µM
  relative viability: 0.289
EKVX; first compound 6.325 µM
  relative viability: 0.267
EKVX; first compound 20 µM
  relative viability: 0.269
201T; first compound 0.2 µM
  relative viability: 0.704
201T; first compound 0.6325 µM
  relative viability: 0.701
201T; first compound 2 µM
  relative viability: 0.736
201T; first compound 6.325 µM
  relative viability: 0.605
201T; first compound 20 µM
  relative viability: 0.761
SK-MES-1; first compound 0.2 µM
  relative viability: 0.569
SK-MES-1; first compound 0.6325 µM
  relative viability: 0.601
SK-MES-1; first compound 2 µM
  relative viability: 0.58
SK-MES-1; first compound 6.325 µM
  relative viability: 0.518
SK-MES-1; first compound 20 µM
  relative viability: 0.514
NCI-H1915; first compound 0.2 µM
  relative viability: 0.31
NCI-H1915; first compound 0.6325 µM
  relative viability: 0.27
NCI-H1915; first compound 2 µM
  relative viability: 0.279
NCI-H1915; first compound 6.325 µM
  relative viability: 0.314
NCI-H1915; first compound 20 µM
  relative viability: 0.357
LK-2; first compound 0.2 µM
  relative viability: 1.02
LK-2; first compound 0.6325 µM
  relative viability: 0.693
LK-2; first compound 2 µM
  relative viability: 0.625
LK-2; first compound 6.325 µM
  relative viability: 1.02
LK-2; first compound 20 µM
  relative viability: 0.236
BEN; first compound 0.2 µM
  relative viability: 1.22
BEN; first compound 0.6325 µM
  relative viability: 1.1
BEN; first compound 2 µM
  relative viability: 1.03
BEN; first compound 6.325 µM
  relative viability: 1.1
BEN; first compound 20 µM
  relative viability: 0.578
NCI-H1993; first compound 0.2 µM
  relative viability: 0.433
NCI-H1993; first compound 0.6325 µM
  relative viability: 0.43
NCI-H1993; first compound 2 µM
  relative viability: 0.511
NCI-H1993; first compound 6.325 µM
  relative viability: 0.448
NCI-H1993; first compound 20 µM
  relative viability: 0.351
HCC-366; first compound 0.2 µM
  relative viability: 0.321
HCC-366; first compound 2 µM
  relative viability: 0.3
HCC-366; first compound 6.325 µM
  relative viability: 0.0405
HCC-366; first compound 20 µM
  relative viability: 0.0273
COR-L 105; first compound 0.2 µM
  relative viability: 0.45
COR-L 105; first compound 0.6325 µM
  relative viability: 0.548
COR-L 105; first compound 2 µM
  relative viability: 0.44
COR-L 105; first compound 6.325 µM
  relative viability: 0.406
COR-L 105; first compound 20 µM
  relative viability: 0.439
NCI-H1734; first compound 0.2 µM
  relative viability: 0.786
NCI-H1734; first compound 0.6325 µM
  relative viability: 0.676
NCI-H1734; first compound 2 µM
  relative viability: 0.607
NCI-H1734; first compound 6.325 µM
  relative viability: 0.583
NCI-H1734; first compound 20 µM
  relative viability: 0.183
